From patent US11576865B2, “Sustained-release dosage forms of ruxolitinib” (Incyte Corporation, priority 2012, dated 2023)

Experiments:
[1] = Open-label study of immediate-release ruxolitinib phosphate tablets in MF patients, pharmacokinetics; format: in vivo, human; conditions: dose from 10 mg to 100 mg
Method: This was an open-label study exploring the safety, tolerability, and efficacy of ruxolitinib, administered orally to patients with primary myelofibrosis (PMF) and post polycythemia vera/essential thrombocythemia myelofibrosis (Post-PV/ET MF). The study was comprised of 3 parts: Part 1-dose escalation and expansion, bid dosing, Part 2-alternative dosing schedules (A, B and C), and Part 3-three independent patient groups (Group I, II and III). Eight dose regimens were evaluated in 3 parts. The Part 1 evaluated two dose levels of 25 mg bid and 50 mg bid, Part 2 studied five dose regimens of 10 mg bid, 25 mg bid, 25 mg qd, 50 mg qd and 100 mg qd and Part 3 assessed six dose regimens of 10 mg bid, 15 mg bid, 25 mg bid, 50 mg qd, 100 mg qd and 200 mg qd. A total of 154 subjects were enrolled; 32 subjects enrolled in Part 1, 29 subjects in Part 2 and 93 subjects in Part 3. See Table 4b (qd=once per day; bid=twice per day).
In Part 1, the pharmacokinetic blood samples were collected at pre-dose and 0.5, 1, 1.5, 2, 4, 6 and 9 hours post-dose on Days 1 and 15 of Cycle 1 and at pre-dose on Day 1 of Cycles 2 and 3, using lavender top (K3EDTA) Vacutainer® tubes. […]
Plasma samples were shipped to Incyte Corporation and assayed by a validated, GLP, LC/MS/MS method with a linear range of 1 to 1000 nM and a limit of quantification of 1 nM. […]

[2] = system: patients with myelofibrosis (MF); assay: Phase 2 sustained-release clinical trial, haematology and adverse events; conditions: human, in vivo, 16 weeks
Method: A Phase 2 clinical trial was carried out in patients with myelofibrosis (MF). A total of 41 subjects were enrolled, and spleen volume and total symptom scores were obtained at baseline. Tablets of sustained-release formulation SR-2 (see Example 1) were administered to fasted patients. All patients were treated with 25 mg once daily doses for 8 weeks. After 8 weeks, depending upon the clinical response, the investigator was allowed to (a) maintain the same dose of SR-2, (b) increase the dose to 50 mg once daily, (c) increase the dose to alternating doses of 25 mg and 50 mg, dosed once daily, or (d) switch to treatment with the immediate release formulation.
Data relating to mean platelet count and mean hemoglobin levels (Hgb) is presented below in Table 3 together with comparative data from the COMFORT-I study. […] Data is shown as mean±SD.
Data for adverse events relating to anemia, thrombocytopenia, neutropenia, and all Grade 3 or higher adverse events are compared for the sustained-release and COMFORT-I (immediate-release) studies (see Example 3 and Comparative Example A for descriptions of the studies) in Table 6a. Adverse events are graded according to CTCAE criteria which can be found online at ctep.cancer.gov/protocolDevelopment/electronic_applications/ctc.htm or evs.nci.nih.gov/ftp1/CTCAE/CTCAE_4.03_2010-06-14_QuickReference_5×7.pdf. A Grade 3 adverse event generally corresponds to a reaction that is severe or medically significant, but not immediately life-threatening where hospitalization or prolongation of hospitalization is indicated and where the reaction is disabling to the extent of limiting self care. Higher Grades are 4 (life-threatening requiring urgent intervention) and 5 (death). For anemia, Grade 3 corresponds to Hgb<8.0 g/dL; <4.9 mmol/L; <80 g/L, where a transfusion is indicated. For thrombocytopenia (decreased platelet count), Grade 3 corresponds to <50,000-25,000/mm^3; <50.0-25.0×10^9/L. The sustained-release data was evaluated for patients over the course of 16 weeks. Mean duration of exposure to ruxolitinib in the COMFORT-I was approximately 242 days. Typically, the majority of hematologic adverse events occur within the first few months of therapy as observed in the COMFORT-I study.
The sustained-release data was evaluated for patients over the course of 16 weeks. Mean duration of exposure to ruxolitinib in the COMFORT-I study was approximately 242 days. The vast majority of hematologic adverse events occur within the first few months of therapy as observed in the COMFORT-I study. […] Additionally, the severity of the adverse events is lesser in the sustained-release study.

[3] = system: patients with intermediate-2 or high risk myelofibrosis; conditions: cited from earlier work
Myelofibrosis patients = conditions: COMFORT-II, 48 weeks (primary end point); cited from earlier work
[4] = cited from earlier work
[5] = system: patients with intermediate-2 or high risk myelofibrosis; conditions: cited from earlier work; remark: listed apart in the source
[6] = COMFORT I, immediate release, N = 155, maximum severity
[7] = COMFORT I, immediate release, N = 155, treatment-related, maximum severity
[8] = COMFORT I, immediate release, N = 155, treatment-related
[9] = COMFORT I, immediate release, N = 155
[10] = COMFORT I, mean exposure approximately 242 days
[11] = COMFORT-I Study (active), Week 12, mean total daily dose 30.4 mg, mean ± SD
[12] = COMFORT I immediate-release, n 129
[13] = COMFORT I immediate-release, n 139
[14] = COMFORT I immediate-release, n 140
[15] = COMFORT I immediate-release, n 148

N#CC[C@H](C1CCCC1)n1cc(-c2ncnc3[nH]ccc23)cn1 [Ruxolitinib, (3R)-3-cyclopentyl-3-[4-(7H-pyrrolo[2,3-d]pyrimidin-4-yl)pyrazol-1-yl]propanenitrile]
dose proportionality of mean Cmax and AUC [1]: increased approximately linearly proportional to dose | % of Subjects With Any Adverse Events, Any severity [2]: (78.0) % | % of Subjects with Anaemia, Any severity [2]: (4.9) % | % of Subjects with Blood and lymphatic system disorders, Any severity [2]: (19.5) % | % of Subjects with Thrombocytopenia, Any severity [2]: (14.6) % | Number of Subjects With Any Adverse Events, Any severity [2]: 32 | Number of Subjects With Any Adverse Events, LT (life threatening) [2]: 0 | Number of Subjects With Any Adverse Events, Mi (mild) [2]: 16 | Number of Subjects With Any Adverse Events, Mo (moderate) [2]: 9 | Number of Subjects With Any Adverse Events, Se (severe) [2]: 7 | Number of Subjects with Anaemia, Any severity [2]: 2 | Number of Subjects with Anaemia, LT (life threatening) [2]: 0 | Number of Subjects with Anaemia, Mi (mild) [2]: 0 | Number of Subjects with Anaemia, Mo (moderate) [2]: 2 | Number of Subjects with Anaemia, Se (severe) [2]: 0 | Number of Subjects with Blood and lymphatic system disorders, Any severity [2]: 8 | Number of Subjects with Blood and lymphatic system disorders, LT (life threatening) [2]: 0 | Number of Subjects with Blood and lymphatic system disorders, Mi (mild) [2]: 3 | Number of Subjects with Blood and lymphatic system disorders, Mo (moderate) [2]: 4 | Number of Subjects with Blood and lymphatic system disorders, Se (severe) [2]: 1 | Number of Subjects with Thrombocytopenia, Any severity [2]: 6 | Number of Subjects with Thrombocytopenia, LT (life threatening) [2]: 0 | Number of Subjects with Thrombocytopenia, Mi (mild) [2]: 3 | Number of Subjects with Thrombocytopenia, Mo (moderate) [2]: 2 | Number of Subjects with Thrombocytopenia, Se (severe) [2]: 1 | Number of Subjects With Any Adverse Events, FT (fatal) [3, 6]: 9 | Number of Subjects With Any Adverse Events, LT (life threatening) [3, 6]: 9 | Number of Subjects With Any Adverse Events, Mi (mild) [3, 6]: 20 | Number of Subjects With Any Adverse Events, Mo (moderate) [3, 6]: 58 | Number of Subjects With Any Adverse Events, Se (severe) [3, 6]: 55 | Number of Subjects with Anaemia, FT (fatal) [3, 7]: 0 | Number of Subjects with Anaemia, LT (life threatening) [3, 7]: 8 | Number of Subjects with Anaemia, Mi (mild) [3, 7]: 4 | Number of Subjects with Anaemia, Mo (moderate) [3, 7]: 20 | Number of Subjects with Anaemia, Se (severe) [3, 7]: 16 | Number of Subjects with Blood and lymphatic system disorders, FT (fatal) [3, 7]: 0 | Number of Subjects with Blood and lymphatic system disorders, LT (life threatening) [3, 7]: 10 | Number of Subjects with Blood and lymphatic system disorders, Mi (mild) [3, 7]: 20 | Number of Subjects with Blood and lymphatic system disorders, Mo (moderate) [3, 7]: 28 | Number of Subjects with Blood and lymphatic system disorders, Se (severe) [3, 7]: 27 | Number of Subjects with Thrombocytopenia, FT (fatal) [3, 7]: 0 | Number of Subjects with Thrombocytopenia, LT (life threatening) [3, 7]: 2 | Number of Subjects with Thrombocytopenia, Mi (mild) [3, 7]: 21 | Number of Subjects with Thrombocytopenia, Mo (moderate) [3, 7]: 19 | Number of Subjects with Thrombocytopenia, Se (severe) [3, 7]: 11 | % of Subjects with Anaemia, Any severity [3, 8]: 31.0% | % of Subjects with Blood and lymphatic system disorders, Any severity [3, 8]: 54.8% | % of Subjects with Thrombocytopenia, Any severity [3, 8]: 34.2% | Number of Subjects with Anaemia, Any severity [3, 8]: 48 | Number of Subjects with Blood and lymphatic system disorders, Any severity [3, 8]: 85 | Number of Subjects with Thrombocytopenia, Any severity [3, 8]: 53 | % of Subjects With Any Adverse Events, Any severity [3, 9]: 97.4% | Number of Subjects With Any Adverse Events, Any severity [3, 9]: 151 | Percent of Patients with All ≥ Grade 3 Adverse Events [3, 10]: 47.1% | Percent of Patients with Grade 3 or Higher Anemia [3, 10]: 15.5% | Percent of Patients with Grade 3 or Higher Neutropenia [3, 10]: 1.3% | Percent of Patients with Grade 3 or Higher Thrombocytopenia [3, 10]: 8.4% | Mean change from baseline Hgb [3, 11]: -13.2 ± 15.5 g/L | Mean change from baseline platelet count [3, 11]: −131 ± 143 ×10^9/L | patients with at least a 35% reduction in spleen volume from baseline (Myelofibrosis patients): 28% | half-life ([4]; human, immediate-release, Shi et al.): about 3 hours | Bioavailability ([4]; oral): 70-80% | Total Symptom Score, Percent Change from Baseline To Week 24, Max [5, 12]: 108.3 | Total Symptom Score, Percent Change from Baseline To Week 24, Mean [5, 12]: −46.1 | Total Symptom Score, Percent Change from Baseline To Week 24, Median [5, 12]: −56.2 | Total Symptom Score, Percent Change from Baseline To Week 24, Min [5, 12]: −100.0 | Spleen Volume, Percent Change from Baseline To Week 24, Max [5, 13]: 25.1% | Spleen Volume, Percent Change from Baseline To Week 24, Mean [5, 13]: −31.6% | Spleen Volume, Percent Change from Baseline To Week 24, Median [5, 13]: −33.0% | Spleen Volume, Percent Change from Baseline To Week 24, Min [5, 13]: −75.9% | Total Symptom Score, Percent Change from Baseline To Week 16, Max [5, 14]: 292.5 | Total Symptom Score, Percent Change from Baseline To Week 16, Mean [5, 14]: −40.5 | Total Symptom Score, Percent Change from Baseline To Week 16, Median [5, 14]: −51.1 | Total Symptom Score, Percent Change from Baseline To Week 16, Min [5, 14]: −100.0 | Spleen Volume, Percent Change from Baseline To Week 12, Max [5, 15]: 3.8% | Spleen Volume, Percent Change from Baseline To Week 12, Mean [5, 15]: −32.0% | Spleen Volume, Percent Change from Baseline To Week 12, Median [5, 15]: −31.7% | Spleen Volume, Percent Change from Baseline To Week 12, Min [5, 15]: −74.4% | proportion of patients with a reduction of 50% or more in the total symptom score ([5]; COMFORT-I, baseline to week 24): 45.9% | proportion of patients with a reduction of 35% or more in spleen volume ([5]; COMFORT-I, week 24 (primary end point)): 41.9%
